Assays:
[1] = tested on: RHA266 (wild-type) sunflower plants; experiment: Field trial, tolerance to sulfonylurea herbicides (% injury); assay type: in vivo, Helianthus annuus; settings: six-leaf stage
Description: (§1) To evaluate the resistance of MUT9 sunflower plants to sulfonylurea herbicides, RHA266 (wild-type) and MUT9 sunflower plants were planted outdoors in Balcarce, Argentina during the growing season in an RCBD field trial with two replications to evaluate the tolerance of homozygous M5 MUT9 plants to the sulfonylurea herbicides tribenuron methyl (TBM) and thifensulfuron (TFS) at 1× and 2× rates applied at the six-leaf stage. Due to the lack of MUT9 seed, one herbicide was sprayed in each replication. The 1× rates for TBM and TFS are 13.15 g a.i./ha and 4.4 g a.i./ha, respectively.

[2] = tested on: homozygous M5 MUT9 sunflower plants; experiment: as above; assay type: in vivo, Helianthus annuus; settings: six-leaf stage
Description: as §1

[3] = rate 2X (1X: TBM 13.15 g a.i./ha, TFS 4.4 g a.i./ha)
[4] = rate 1X (TBM 13.15 g a.i./ha, TFS 4.4 g a.i./ha)

| Compound | % Injury [1, 3] [%] | % Injury [2, 4] [%] | % Injury [2, 3] [%] | % Injury [1, 4] [%] |
| --- | --- | --- | --- | --- |
| COC(=O)c1ccccc1S(=O)(=O)NC(=O)N(C)c1nc(C)nc(OC)n1 [TBM, tribenuron methyl] | 45 | 75 | 75 |  |
| COc1nc(C)nc(NC(=O)NS(=O)(=O)c2ccsc2C(=O)O)n1 [TFS, thifensulfuron] | 75 | 75 | 75 | 75 |
